According to PubChem BioAssay AID1963967 (Molecular Pharmacology Branch, DTP, NCI, 2024):

Test system: 855422-203-R-J1-PDC spheroids with HUVEC/MSC, viability
Experiment: Anticancer human tumor 855422-203-R-J1-PDC patient-derived bladder carcinoma cell line growth inhibition [PI3K]
Settings: for IC50: curve of first compound; for viability, T/C: stronger effect = lower value
Procedure, shortened: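 Agents were dosed from a top concentration near clinical Cmax (otherwise 10 microM) in half-log decrements, alone or combined with PI3K inhibitors. The spheroids contain tumor cells plus endothelial (HUVEC) and MSC stroma; viability is measured.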

[1] = second compound 0.0316 µM, first compound 0.0316 µM
[2] = second compound 0.0316 µM, first compound 0.1 µM
[3] = second compound 0.1 µM, first compound 0.0316 µM
[4] = second compound 0.1 µM, first compound 0.1 µM
[5] = second compound 0.316 µM, first compound 0.0316 µM
[6] = second compound 0.316 µM, first compound 0.1 µM
[7] = second compound 1 µM, first compound 0.0316 µM
[8] = second compound 1 µM, first compound 0.1 µM
[9] = second compound 3.16 µM, first compound 0.0316 µM
[10] = second compound 3.16 µM, first compound 0.1 µM
[11] = second compound 10 µM, first compound 0.0316 µM
[12] = second compound 10 µM, first compound 0.1 µM
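Further: agents incubated with spheroids for one week before read-out.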
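Wherever viability, T/C is given: 100% = DMSO vehicle-treated control wells.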

SMILES: CC(C)n1nc(-c2ccc3oc(N)nc3c2)c2c(N)ncnc21 + CC(Nc1ncnc2nc[nH]c12)c1cc2cccc(Cl)c2c(=O)n1-c1ccccc1
- IC50 (second compound 0.0316 µM): 0.0508 µM
- IC50 (second compound 0.1 µM): 0.0502 µM
- IC50 (second compound 0.316 µM): 0.0465 µM
- IC50 (second compound 1 µM): 0.0387 µM
- IC50 (second compound 3.16 µM): 0.0334 µM
- IC50 (second compound 10 µM): 0.0173 µM
- viability, T/C (second compound 0.0316 µM, first compound 0.000316 µM): 111%
- viability, T/C (second compound 0.0316 µM, first compound 0.001 µM): 97.1%
- viability, T/C (second compound 0.0316 µM, first compound 0.00316 µM): 121%
- viability, T/C (second compound 0.0316 µM, first compound 0.01 µM): 98.6%
- viability, T/C [1]: 74.3%
- viability, T/C [2]: 15.9%
- viability, T/C (second compound 0.1 µM, first compound 0.000316 µM): 110%
- viability, T/C (second compound 0.1 µM, first compound 0.001 µM): 108%
- viability, T/C (second compound 0.1 µM, first compound 0.00316 µM): 107%
- viability, T/C (second compound 0.1 µM, first compound 0.01 µM): 98.1%
- viability, T/C [3]: 74%
- viability, T/C [4]: 14.4%
- viability, T/C (second compound 0.316 µM, first compound 0.000316 µM): 100%
- viability, T/C (second compound 0.316 µM, first compound 0.001 µM): 106%
- viability, T/C (second compound 0.316 µM, first compound 0.00316 µM): 102%
- viability, T/C (second compound 0.316 µM, first compound 0.01 µM): 99.3%
- viability, T/C [5]: 69.1%
- viability, T/C [6]: 12.1%
- viability, T/C (second compound 1 µM, first compound 0.000316 µM): 110%
- viability, T/C (second compound 1 µM, first compound 0.001 µM): 91.2%
- viability, T/C (second compound 1 µM, first compound 0.00316 µM): 100%
- viability, T/C (second compound 1 µM, first compound 0.01 µM): 96.9%
- viability, T/C [7]: 57.6%
- viability, T/C [8]: 14.1%
- viability, T/C (second compound 3.16 µM, first compound 0.000316 µM): 95%
- viability, T/C (second compound 3.16 µM, first compound 0.001 µM): 91%
- viability, T/C (second compound 3.16 µM, first compound 0.00316 µM): 93.9%
- viability, T/C (second compound 3.16 µM, first compound 0.01 µM): 78.7%
- viability, T/C [9]: 52.2%
- viability, T/C [10]: 12.9%
- viability, T/C (second compound 10 µM, first compound 0.000316 µM): 81.5%
- viability, T/C (second compound 10 µM, first compound 0.001 µM): 81%
- viability, T/C (second compound 10 µM, first compound 0.00316 µM): 80.3%
- viability, T/C (second compound 10 µM, first compound 0.01 µM): 59%
- viability, T/C [11]: 38.2%
- viability, T/C [12]: 13.6%

SMILES: CC1(C)CCC(CN2CCN(c3ccc(C(=O)NS(=O)(=O)c4ccc(NCC5CCOCC5)c([N+](=O)[O-])c4)c(Oc4cnc5[nH]ccc5c4)c3)CC2)=C(c2ccc(Cl)cc2)C1 + CC(Nc1ncnc2nc[nH]c12)c1cc2cccc(Cl)c2c(=O)n1-c1ccccc1
- IC50 (second compound 0.0316 µM): 4.97 µM
- IC50 (second compound 0.1 µM): 4.87 µM
- IC50 (second compound 0.316 µM): 5.11 µM
- IC50 (second compound 1 µM): 5.04 µM
- IC50 (second compound 3.16 µM): 5.09 µM
- IC50 (second compound 10 µM): 5.17 µM
- viability, T/C [1]: 118%
- viability, T/C [2]: 88.3%
- viability, T/C (second compound 0.0316 µM, first compound 0.316 µM): 114%
- viability, T/C (second compound 0.0316 µM, first compound 1 µM): 105%
- viability, T/C (second compound 0.0316 µM, first compound 3.16 µM): 81.1%
- viability, T/C (second compound 0.0316 µM, first compound 10 µM): 2.05%
- viability, T/C [3]: 92%
- viability, T/C [4]: 101%
- viability, T/C (second compound 0.1 µM, first compound 0.316 µM): 111%
- viability, T/C (second compound 0.1 µM, first compound 1 µM): 117%
- viability, T/C (second compound 0.1 µM, first compound 3.16 µM): 78.8%
- viability, T/C (second compound 0.1 µM, first compound 10 µM): 1.83%
- viability, T/C [5]: 104%
- viability, T/C [6]: 107%
- viability, T/C (second compound 0.316 µM, first compound 0.316 µM): 105%
- viability, T/C (second compound 0.316 µM, first compound 1 µM): 106%
- viability, T/C (second compound 0.316 µM, first compound 3.16 µM): 84.2%
- viability, T/C (second compound 0.316 µM, first compound 10 µM): 2.05%
- viability, T/C [7]: 95.6%
- viability, T/C [8]: 106%
- viability, T/C (second compound 1 µM, first compound 0.316 µM): 103%
- viability, T/C (second compound 1 µM, first compound 1 µM): 98.4%
- viability, T/C (second compound 1 µM, first compound 3.16 µM): 82.5%
- viability, T/C (second compound 1 µM, first compound 10 µM): 2.34%
- viability, T/C [9]: 99.9%
- viability, T/C [10]: 96.9%
- viability, T/C (second compound 3.16 µM, first compound 0.316 µM): 104%
- viability, T/C (second compound 3.16 µM, first compound 1 µM): 97.9%
- viability, T/C (second compound 3.16 µM, first compound 3.16 µM): 83.9%
- viability, T/C (second compound 3.16 µM, first compound 10 µM): 2.02%
- viability, T/C [11]: 97.2%
- viability, T/C [12]: 79.9%
- viability, T/C (second compound 10 µM, first compound 0.316 µM): 103%
- viability, T/C (second compound 10 µM, first compound 1 µM): 89.1%
- viability, T/C (second compound 10 µM, first compound 3.16 µM): 85.6%
- viability, T/C (second compound 10 µM, first compound 10 µM): 2.02%
